Molecular target: T1, ferroportin (Fpn) (Mus musculus, UniProt Q9JHI9)
T1 construct: endogenous in cells; host or cells: J774 mouse macrophage cell line, induced with Fe(III)NTA
T1 sequence (Q9JHI9 1-570): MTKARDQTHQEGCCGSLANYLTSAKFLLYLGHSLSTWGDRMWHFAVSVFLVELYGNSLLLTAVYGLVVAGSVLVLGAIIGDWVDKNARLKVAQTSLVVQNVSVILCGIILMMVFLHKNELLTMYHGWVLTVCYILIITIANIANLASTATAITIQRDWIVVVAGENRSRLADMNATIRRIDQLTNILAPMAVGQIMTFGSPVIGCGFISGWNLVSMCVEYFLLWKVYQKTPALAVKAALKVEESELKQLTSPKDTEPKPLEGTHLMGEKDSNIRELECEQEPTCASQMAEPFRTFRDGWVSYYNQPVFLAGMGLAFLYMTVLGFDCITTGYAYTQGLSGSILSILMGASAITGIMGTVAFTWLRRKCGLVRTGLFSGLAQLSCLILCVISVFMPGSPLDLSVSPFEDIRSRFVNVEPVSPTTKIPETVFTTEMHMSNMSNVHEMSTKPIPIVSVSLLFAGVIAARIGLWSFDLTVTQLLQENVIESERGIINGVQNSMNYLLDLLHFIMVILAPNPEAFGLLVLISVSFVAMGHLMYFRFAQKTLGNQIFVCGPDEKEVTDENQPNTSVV
Test: Hepcidin Internalization Assay (J774)
Type: cell-based
Settings: Average (AVE) IC50 of multiple measurements; inhibition of TMR-hepcidin (25 nM) internalization into J774 cells
Description: This cellular assay allows quantification of the binding of hepcidin to ferroportin (Fpn) through microscopic detection of internalization of a fluorescently labeled hepcidin into J774 cells. […] Binding of hepcidin to Fpn triggers internalization and degradation of both hepcidin and Fpn. […] Therefore, microscopic detection of cell-associated TMR fluorescence is a measure of hepcidin binding to Fpn and internalization of hepcidin and Fpn. If TMR-hepcidin is prevented from binding to Fpn, cellular TMR fluorescence remains low (Durrenberger et al, 2013). The effect of small molecular weight Fpn inhibitor compounds in this assay was evaluated in vitro as described below. […] After removal of the paraformaldehyde solution, cells were washed 3 times with PBS leaving 100 μl per well and the plates were sealed with foil plate seal. TMR (530-550 nm excitation/575-625 nm emission/400 ms exposure time) and Hoechst 33342 (360-370 nm excitation/420-460 nm emission /10 ms exposure time) fluorescence images were acquired using a […] imager (Olympus) with a 20× high NA objective. […] The acquired image data was analysed with the […] analysis software. […] IC50 values were calculated with the Sum(Mean) raw data using “log(inhibitor) vs. response” curve fitting of Prism 5 software (GraphPad Software Inc., version 5.02). For each data set the fit of the “log(inhibitor) vs. response (three parameters)” model was compared to the fit of the “log(inhibitor) vs. response - Variable slope (four parameters)” model and the IC50 data of the preferred model was used.

| Structure (SMILES) | IC50 [nM] |
| --- | --- |
| CC(C)Cn1c(CCNCCc2nc(C(=O)NCc3ncccc3F)co2)nc2ccccc21 [Example 8, N-((3-fluoropyridin-2-yl)methyl)-2-(2-((2-(1-isobutyl-1 H-benzo[d]imidazol-2-yl)ethyl)amino)ethyl)oxazole-4-carboxamide] | 1.2 |
| O=C(NCc1ncccc1F)c1coc(CCNCCc2nc3ccccc3n2CCc2ncco2)n1 [Example 31, N-((3-fluoropyridin-2-yl)methyl)-2-(2-((2-(1-(2-(oxazol-2-yl)ethyl)-1 H-benzo[d]imidazol-2-yl)ethyl)amino)ethyl)oxazole-4-carboxamide] | 2.8 |
| COCCn1c(CCNCCc2nc(C(=O)NCc3ncccc3OC)co2)nc2cc3c(cc21)OCCO3 [Example 67, 2-(2-((2-(1-(2-methoxyethyl)-6,7-dihydro-1H-[1,4]dioxino[2′,3′:4,5]benzo[1,2-d]imidazol-2-yl)ethyl)amino)ethyl)-N-((3-methoxypyridin-2-yl)methyl)oxazole-4-carboxamide] | 4.3 |
| COc1cccc(-n2c(CCNCCc3nc(C(=O)NCc4ncccc4F)co3)nc3cc(OC)c(OC)cc32)c1 [Example 72, 2-(2-((2-(5,6-dimethoxy-1-(3-methoxyphenyl)-1H-benzo[d]imidazol-2-yl)ethyl)amino)ethyl)-N-((3-fluoropyridin-2-yl)methyl)oxazole-4-carboxamide] | 35 |
| CCCCn1c(CCNCCc2nc(C(=O)NCc3ncccc3F)co2)nc2cc(-c3ccccc3OC)ccc21 [Example 39, 2-(2-((2-(1-butyl-5-(2-methoxyphenyl)-1 H-benzo[d]imidazol-2-yl)ethyl)amino)ethyl)-N-((3-fluoropyridin-2-yl)methyl)oxazole-4-carboxamide] | 1.7 |
| Cc1noc(C)c1CCn1c(CCNCCc2nc(C(=O)NCc3ncccc3F)co2)nc2ccccc21 [Example 30, 2-(2-((2-(1-(2-(3,5-dimethylisoxazol-4-yl)ethyl)-1 H-benzo[d]imidazol-2-yl)ethyl)amino)ethyl)-N-((3-fluoropyridin-2-yl)methyl)oxazole-4-carboxamide] | 1.3 |
| Cn1c(CCNCCc2nc(C(=O)NCc3ncccc3F)co2)nc2ccccc21 [Example 5, N-((3-fluoropyridin-2-yl)methyl)-2-(2-((2-(1-methyl-1 H-benzo[d]imidazol-2-yl)ethyl)amino)ethyl)oxazole-4-carboxamide] | 7 |
| O=C(NCc1ncccc1F)c1coc(CCNCCc2nc3ccccc3n2CCC2CC2)n1 [Example 21, 2-(2-((2-(1-(2-cyclopropylethyl)-1 H-benzo[d]imidazol-2-yl)ethyl)amino)ethyl)-N-((3-fluoropyridin-2-yl)methyl)oxazole-4-carboxamide] | 1 |
| O=C(NCc1ncccc1F)c1coc(CCNCCc2nc3cc4c(cc3n2CC2CC2)OCCO4)n1 [Example 65] | 1.2 |
| O=C(NCc1ncccc1F)c1coc(CCNCCc2nc3ccccc3n2CC2CC2)n1 [Example 50, 2-(2-((2-(1-(Cyclopropylmethyl)-1 H-benzo[d]imidazol-2-yl)ethyl)amino)ethyl)-N-((3-fluoropyridin-2-yl)methyl)oxazole-4-carboxamide] | 0.8 |
| O=C(NCc1ncccc1F)c1coc(CCNCCc2nc3ccccc3n2CCc2ccccn2)n1 [Example 35, N-((3-fluoropyridin-2-yl)methyl)-2-(2-((2-(1-(2-(pyridin-2-yl)ethyl)-1H-benzo[d]imidazol-2-yl)ethyl)amino)ethyl)oxazole-4-carboxamide] | 2 |
| COCCOCCn1c(CCNCCc2nc(C(=O)NCc3ncccc3F)co2)nc2ccccc21 [Example 48, N-((3-fluoropyridin-2-yl)methyl)-2-(2-((2-(1-(2-(2-methoxyethoxy)ethyl)-1 H-benzo[d]imidazol-2-yl)ethyl)amino)ethyl)oxazole-4-carboxamide] | 2 |
| CCCCn1c(C2(CNCCc3nc(C(=O)NCc4ncccc4F)co3)CCCCC2)nc2ccccc21 [Example 61, 2-(2-(((1-(1-butyl-1H-benzo[d]imidazol-2-yl)cyclohexyl)methyl)amino)ethyl)-N-((3-fluoropyridin-2-yl)methyl)oxazole-4-carboxamide] | 1430 |
| CCCCn1c(CCNCCc2nc(C(=O)NCc3ncccc3F)co2)nc2ccccc21 [Example 2, 2-(2-((2-(1-butyl-1 H-benzo[d]imidazol-2-yl)ethyl)amino)ethyl)-N-((3-fluoropyridin-2-yl)methyl)oxazole-4-carboxamide] | 1 |
| O=C(NCc1ncccc1F)c1coc(CCNCCc2nc3ccccc3n2Cc2ccncn2)n1 [Example 62, N-((3-fluoropyridin-2-yl)methyl)-2-(2-((2-(1-(pyrimidin-4-ylmethyl)-1 H-benzo[d]imidazol-2-yl)ethyl)amino)ethyl)oxazole-4-carboxamide] | 8.5 |

Other lines, results leading:

| IC50 [nM] | Structure (SMILES) |
| --- | --- |
| 1.3 | COc1cccc(-n2c(CCNCCc3nc(C(=O)NCc4ncccc4F)co3)nc3cc4c(cc32)OCO4)c1 [Example 75, N-((3-fluoropyridin-2-yl)methyl)-2-(2-((2-(5-(3-methoxyphenyl)-5H-[1,3]dioxolo[4′,5′:4,5]benzo[1,2-d]imidazol-6-yl)ethyl)amino)ethyl)oxazole-4-carboxamide] |
| 4 | O=C(NCc1ncccc1F)c1coc(CCNCCc2nc3cc(C#Cc4ccccn4)ccc3n2CC2CC2)n1 [Example 89, 2-(2-((2-(1-(cyclopropylmethyl)-5-(pyridin-2-ylethynyl)-1 H-benzo[d]imidazol-2-yl)ethyl)amino)ethyl)-N-((3-fluoropyridin-2-yl)methyl)oxazole-4-carboxamide] |
| 365 | O=C(NCc1ncccc1F)c1coc(CCNCCc2nc3cc4c(cc3n2CCc2ncco2)OCCO4)n1 [Example 94, N-((3-fluoropyridin-2-yl)methyl)-2-(2-((2-(1-(2-(oxazol-2-yl)ethyl)-6,7-dihydro-1 H-[1,4]dioxino[2′,3′:4,5]benzo[1,2-d]imidazol-2-yl)ethyl)amino)ethyl)oxazole-4-carboxamide] |
| 2 | COc1cccc(-n2c(CCNCCc3nc(C(=O)NCc4ncccc4F)co3)nc3cc4c(cc32)OCCO4)c1 [Example 92, N-((3-fluoropyridin-2-yl)methyl)-2-(2-((2-(1-(3-methoxyphenyl)-6,7-dihydro-1 H-[1,4]dioxino[2′,3′:4,5]benzo[1,2-d]imidazol-2-yl)ethyl)amino)ethyl)oxazole-4-carboxamide] |
| 4.1 | COCCn1c(CCNCCc2nc(C(=O)NCc3ncccc3F)co2)nc2cc(C#Cc3ccccn3)ccc21 [Example 86, N-((3-fluoropyridin-2-yl)methyl)-2-(2-((2-(1-(2-methoxyethyl)-5-(pyridin-2-ylethynyl)-1 H-benzo[d]imidazol-2-yl)ethyl)amino)ethyl)oxazole-4-carboxamide] |
| 223 | COCCn1c(C2CN(CCc3nc(C(=O)NCc4ncccc4F)co3)C2)nc2ccccc21 [Example 96, N-((3-fluoropyridin-2-yl)methyl)-2-(2-(3-(1-(2-methoxyethyl)-1H-benzo[d]imidazol-2-yl)azetidin-1-yl)ethyl)oxazole-4-carboxamide] |
| 5.1 | CN(C)CCn1c(CCNCCc2nc(C(=O)NCc3ncccc3F)co2)nc2cc3c(cc21)OCCO3 [Example 77, 2-(2-((2-(1-(2-(dimethylamino)ethyl)-6,7-dihydro-1 H-[1,4]dioxino[2′,3′:4,5]benzo[1,2-d]imidazol-2-yl)ethyl)amino)ethyl)-N-((3-fluoropyridin-2-yl)methyl)oxazole-4-carboxamide] |
| 39 | COc1ccc(-n2c(CCNCCc3nc(C(=O)NCc4ncccc4F)co3)nc3cc(OC)c(OC)cc32)cc1OC [Example 90, 2-(2-((2-(1-(3,4-dimethoxyphenyl)-5,6-dimethoxy-1 H-benzo[d]imidazol-2-yl)ethyl)amino)ethyl)-N-((3-fluoropyridin-2-yl)methyl)oxazole-4-carboxamide] |
| 150 | CN1CCN(CCn2c(CCNCCc3nc(C(=O)NCc4ncccc4F)co3)nc3cc4c(cc32)OCCO4)CC1 [Example 84, N-((3-fluoropyridin-2-yl)methyl)-2-(2-((2-(1-(2-(4-methylpiperazin-1-yl)ethyl)-6,7-dihydro-1H-[1,4]dioxino[2′,3′:4,5]benzo[1,2-d]imidazol-2-yl)ethyl)amino)ethyl)oxazole-4-carboxamide] |

Source: US20240343722A1 (VIFOR (INTERNATIONAL) AG, priority 2021, published 2024)
